EC50 and Emax data for 3 molecules are collected here from US10988523B2, “Modified lipidated Relaxin B chain peptides and their therapeutic use” (Sanofi, priority 2018, dated 2021).

The structures appear in SMILES notation. *1 amine or outer side, *2 acyl side, *3 side chain or, on linkers, in order; H or OH if unused. Where a SMILES comes first, the peptide text is derived from it. Side-chain parts run from the residue outwards. [ ]: non-standard residue; d: D form. The star is where a group is joined. Lys(Me3) = C[N+](C)(C)CCCC[C@H](N)C(=O)O; γGlu = O=C(O)[C@H](CCC(=O)[*:2])N[*:1]; Pentadecanoyl = CCCCCCCCCCCCCCC(=O)*; Arg(Me) = CNC(=N)NCCC[C@H](N)C(=O)O; Stearoyl = CCCCCCCCCCCCCCCCCC(=O)*; Palmitoyl = CCCCCCCCCCCCCCCC(=O)*; αMeK = C[C@](N)(CCCCN)C(=O)O; Nle = CCCC[C@H](N)C(=O)O; AEEA = NCCOCCOCC(=O)O; Aib = CC(C)(N)C(=O)O

The experiment addresses T1, RXFP1 (Homo sapiens, UniProt Q9HBX9).
T1 construct: OVCAR5 cells expressing endogenous RXFP1; endogenous in cells; host or cells: OVCAR5 cells
T1 sequence (Q9HBX9 1-757): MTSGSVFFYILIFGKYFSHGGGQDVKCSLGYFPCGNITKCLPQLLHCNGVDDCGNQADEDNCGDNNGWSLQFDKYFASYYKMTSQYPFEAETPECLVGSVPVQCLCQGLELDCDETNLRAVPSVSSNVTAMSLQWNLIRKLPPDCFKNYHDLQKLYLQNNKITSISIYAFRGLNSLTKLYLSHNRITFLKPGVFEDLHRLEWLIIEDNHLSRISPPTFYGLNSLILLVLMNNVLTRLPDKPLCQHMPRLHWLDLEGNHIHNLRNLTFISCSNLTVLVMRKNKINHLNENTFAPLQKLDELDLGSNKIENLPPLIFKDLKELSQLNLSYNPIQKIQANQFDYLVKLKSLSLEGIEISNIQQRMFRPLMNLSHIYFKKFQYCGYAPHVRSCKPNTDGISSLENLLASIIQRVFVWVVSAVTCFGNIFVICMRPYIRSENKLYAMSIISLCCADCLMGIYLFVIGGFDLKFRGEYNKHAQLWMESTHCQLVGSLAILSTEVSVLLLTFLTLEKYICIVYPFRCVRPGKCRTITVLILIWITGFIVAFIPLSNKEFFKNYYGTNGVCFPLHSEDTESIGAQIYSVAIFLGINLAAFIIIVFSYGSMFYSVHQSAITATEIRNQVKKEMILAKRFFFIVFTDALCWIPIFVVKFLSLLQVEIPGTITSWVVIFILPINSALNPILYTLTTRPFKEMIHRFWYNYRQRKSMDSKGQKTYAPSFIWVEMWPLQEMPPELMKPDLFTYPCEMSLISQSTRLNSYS
In words: OVCAR5 cAMP assay (HTRF), RXFP1 agonist activity. To be noted: for Emax: OVCAR-5, maximal cAMP relative to H2-relaxin maximum (100%), read-out: EMax, OVCAR 5 cells (cAMP). Format: cell-based. The essentials:
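cAMP accumulation readout: after 1 mM IBMX for 40 min, endogenous-RXFP1 OVCAR5 cells got rising peptide concentrations without FCS, 30 min, 37° C, then lysis with HTRF cAMP reagents. Nonlinear regression gave EC50; Emax expressed relative to H2-relaxin maximum, same occasion.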
(In general: cAMP levels reflect the balance of adenylyl cyclase and phosphodiesterase activity.)

As a reminder, the EC50 is the midpoint of the concentration-response curve. As a reminder, the Emax is the maximal effect, on the per cent scale that the assay sets. `CCCCCCCCCCCCCCC(=O)N[C@@H](CCC(=O)N[C@@H](CCC(=O)N[C@@H](CCC(=O)N[C@@H](CCC(=O)NCCCC[C@H](NC(=O)COCCOCCNC(=O)COCCOCCNC(=O)COCCOCCNC(=O)COCCOCCNC(=O)[C@H](CCCCNC(C)=O)NC(=O)[C@H](C)NC(=O)[C@H](CCCNC(=N)N)NC(=O)[C@](C)(CCCCN)NC(=O)[C@H](CO)NC(=O)[C@H](Cc1ccccc1)NC(=O)[C@@H](NC(=O)[C@H](CO)NC(=O)[C@H](CCCC)NC(=O)CNC(=O)[C@H](CCC(=O)O)NC(=O)C(C)(C)NC(=O)C(C)(C)NC(=O)[C@@H](NC(=O)[C@H](CCCCNC(C)=O)NC(=O)[C@H](C)NC(=O)[C@H](CCCNC(=N)N)NC(=O)[C@@H](NC(=O)[C@H](CCCCN)NC(=O)[C@H](CCC(=O)O)NC(=O)[C@H](CCCNC(=N)N)NC(=O)CNC(=O)[C@H](CCC(=O)O)NC(=O)[C@H](CC(C)C)NC(C)=O)C(C)C)[C@@H](C)CC)[C@@H](C)O)C(N)=O)C(=O)O)C(=O)O)C(=O)O)C(=O)O` [compound 167] (Ac-LEGREKVRAK(Ac)I[Aib][Aib]EG[Nle]STFS[αMeK]RAK(Ac)[AEEA][AEEA][AEEA][AEEA]K([γGlu-γGlu-γGlu-γGlu-Pentadecanoyl])-NH2): the Emax turned out to be 93%. The EC50 (OVCAR5 cells, cAMP HTRF, read-out: EC50 (nM), OVCAR 5 cells (cAMP)) worked out at 0.05 nM.

Take `CCCCCCCCCCCCCCCC(=O)N[C@@H](CCC(=O)N[C@@H](CCC(=O)N[C@@H](CCC(=O)N[C@@H](CCC(=O)NCCOCCOCC(=O)NCCOCCOCC(=O)NCCOCCOCC(=O)NCCOCCOCC(=O)NCCCC[C@H](NC(=O)[C@H](CCCCNC(C)=O)NC(=O)[C@H](CCCCN)NC(=O)[C@H](CCCNC(=N)N)NC(=O)C(C)(C)NC(=O)[C@H](CO)NC(=O)[C@H](Cc1c[nH]c2ccccc12)NC(=O)[C@@H](NC(=O)[C@H](CO)NC(=O)[C@H](CCCC)NC(=O)CNC(=O)[C@H](CCC(=O)O)NC(=O)C(C)(C)NC(=O)C(C)(C)NC(=O)[C@@H](NC(=O)[C@H](CCCCNC(C)=O)NC(=O)[C@H](C)NC(=O)[C@H](CCCNC(=N)N)NC(=O)[C@@H](NC(=O)[C@H](CCCCN)NC(=O)[C@H](CCC(=O)O)NC(=O)[C@H](CCCNC(=N)N)NC(=O)CNC(=O)[C@H](CCC(=O)O)NC(=O)[C@H](CC(C)C)NC(C)=O)C(C)C)[C@@H](C)CC)[C@@H](C)O)C(N)=O)C(=O)O)C(=O)O)C(=O)O)C(=O)O` [compound 130] (Ac-LEGREKVRAK(Ac)I[Aib][Aib]EG[Nle]STWS[Aib]RKK(Ac)K([AEEA-AEEA-AEEA-AEEA-γGlu-γGlu-γGlu-γGlu-Palmitoyl])-NH2): the Emax was 93%.

Regarding `CCCCCCCCCCCCCCCCCC(=O)N[C@@H](CCC(=O)N[C@@H](CCC(=O)N[C@@H](CCC(=O)N[C@@H](CCC(=O)NCCOCCOCC(=O)NCCOCCOCC(=O)NCCOCCOCC(=O)NCCCC[C@H](NC(=O)[C@H](CCCCNC(C)=O)NC(=O)[C@H](CCCC[N+](C)(C)C)NC(=O)[C@H](CCCNC(=N)NC)NC(=O)[C@](C)(CCCCN)NC(=O)[C@H](CO)NC(=O)[C@H](Cc1c[nH]c2ccccc12)NC(=O)[C@@H](NC(=O)[C@H](CO)NC(=O)[C@H](CCCC)NC(=O)CNC(=O)[C@H](CCC(=O)O)NC(=O)C(C)(C)NC(=O)C(C)(C)NC(=O)[C@@H](NC(=O)[C@H](CCCCNC(C)=O)NC(=O)[C@H](C)NC(=O)[C@H](CCCNC(=N)N)NC(=O)[C@@H](NC(=O)[C@H](CCCCN)NC(=O)[C@H](CCC(=O)O)NC(=O)[C@H](CCCNC(=N)N)NC(=O)CNC(=O)[C@H](CCC(=O)O)NC(=O)[C@H](CC(C)C)NC(C)=O)C(C)C)[C@@H](C)CC)[C@@H](C)O)C(N)=O)C(=O)O)C(=O)O)C(=O)O)C(=O)O` [compound 138] (Ac-LEGREKVRAK(Ac)I[Aib][Aib]EG[Nle]STWS[αMeK][Arg(Me)][Lys(Me3)]K(Ac)K([AEEA-AEEA-AEEA-γGlu-γGlu-γGlu-γGlu-Stearoyl])-NH2), the Emax was 91%.
